Data from patent publication US20200199102A1, “COMPOUNDS THAT PARTICIPATE IN COOPERATIVE BINDING AND USES THEREOF” (Revolution Medicines, Inc., priority 2017, published 2020).
Where a SMILES comes first, the peptide text is derived from it. [ ]: non-standard residue; d: D form. MeBmt = C/C=C/C[C@@H](C)[C@@H](O)[C@H](NC)C(=O)O; NMeY = CN[C@@H](Cc1ccc(O)cc1)C(=O)O; NMeL = CN[C@@H](CC(C)C)C(=O)O; dNMeV = CN[C@@H](C(=O)O)C(C)C; NMeNva = CCC[C@H](NC)C(=O)O; NMeV = CN[C@H](C(=O)O)C(C)C; Abu = CC[C@H](N)C(=O)O; Sar = CNCC(=O)O

Columns and labels:
Cyclophilin A = target: T1, Cyclophilin A (Homo sapiens, UniProt P62937); assay: AlphaLISA inhibition of binding of biotinylated Cyclosporin A to FLAG tagged Cyclophilin A; conditions: for % signal: AlphaLISA signal; for % signal / % inhibition of CsA binding to Cyclophilin A: test concentration not given; for IC50: read-out: IC50 value of CsA binding to Cyclophilin A
T1 construct: made in house
T1 sequence (P62937 whole entry, species assumed): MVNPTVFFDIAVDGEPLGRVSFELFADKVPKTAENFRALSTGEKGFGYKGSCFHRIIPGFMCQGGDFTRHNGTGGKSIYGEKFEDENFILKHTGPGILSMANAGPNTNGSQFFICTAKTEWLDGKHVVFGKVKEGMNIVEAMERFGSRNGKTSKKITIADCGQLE
Summary of the method: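 Inhibition of biotin-CsA binding to FLAG-tagged Cyclophilin A read by AlphaLISA (ex 680, em 615 nm). Working stocks were 6 nM biotinylated CsA and 25 nM FLAG-CypA; beads and compound were combined first for 30 min, then protein added for 60 min, all at room temperature in the dark, with DMSO and cyclosporin A controls.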

HeLa-CyclophilinA cells = assay: Biosensor cell permeability assay (cyclophilin destabilizing mutant), HeLa-CyclophilinA cells; format: cell-based; conditions: 72 hrs
Description: Cell permeability of compounds can be determined using the following protocol.
This protocol utilizes a modified FKBP or cyclophilin destabilizing mutant to determine the bioactivity of FKBP binding compounds or cyclophilin binding compounds in whole cell assay.
DMEM, DMEM without Phenol Red, 10% FBS, 1× Sodium Pyruvate, 1× Glutamax. Add 125 μl of media with compound per well.
Plate HeLa-FKBP12 cells (for FKBP binding compounds) or HeLa-CyclophilinA cells (for cyclophilin binding compounds) and seed overnight at 5 k/well (approximately ˜18 hrs.). Using a multi-channel pipet, take out the old media and add ˜125 ul of new media with compounds. Compounds are diluted using DMEM without Phenol Red, 10% FBS, 1× Sodium Pyruvate, 1× Glutamax. Add 125 μL of media with compound per well. Cells are treated with compounds at concentration: 30, 10, 3.33, 1.11, 0.37, 0.12, 0.04 and 0.013 uM. Time points are taken at 72 hrs and plate read using plate reader with excitation/emission: 575/620.
Cell binding/permeability is calculated in fold-change (Total RFU of treated samples/total RFU of DMSO treated samples or total RFU above background (Total RFU minus total RFU of DMSO treated samples).

FKBP12 [1] = target: T2, FKBP12 (Homo sapiens, UniProt P62942); assay: AlphaLISA inhibition of binding of biotinylated FK506 to FLAG tagged FKBP12; design: made in house; conditions: read-out: Binding affinity to FKBP12 (by displacement of FK506)
T2 sequence (P62942 whole entry, species assumed): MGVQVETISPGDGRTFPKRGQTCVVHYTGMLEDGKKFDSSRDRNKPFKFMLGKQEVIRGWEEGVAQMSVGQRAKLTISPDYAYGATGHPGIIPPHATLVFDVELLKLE
Description: The binding of compounds of the invention to FKBP12 can be determined using the following protocol.
This protocol utilizes Perkin Elmers AlphaLISA technology platform to detect FKBP binders by measuring the inhibition of binding of biotinylated FK506 to FLAG tagged FKBP12.
10×TBST Buffer (Boston BioProducts IBB-181), Biotinylated FK506 (in-house), FLAG tagged FKBP (in-house); anti-FLAG Donor beads (PerkinElmer AS103) and Streptavidin Acceptor beads (PerkinElmer AL125); Compounds in DMSO (in-house), FK506.
Add 20 uL of 12.5 nM FKBP-FLAG working stock to each well of the 96-well plate. Add 1 uL of test compound (100% DMSO) to each well of the plate using the Janus MTD head and P20 tips (except control wells). Add 1 uL of DMSO to negative control wells and 1 uL of 50 uM FK506 solution to positive control wells. In the dark, add 20 uL of combined Donor/Acceptor beads to each well. Incubate in the dark for 30 minutes at room temperature. In the dark, add 10 uL of 5 nM biotinylated FK506 working stock to each well. Incubate in the dark for 60 minutes at room temperature. Protect plate from light until reading on Biotek Synergy2 Plate Reader; Alphalisa 96-well protocol (680 excitation/615 emission).

FKBP12 [2] = target: T2, FKBP12; assay: SPR binding of compound (analyte) to immobilized FKBP12; conditions: read-out: SPR affinity to FKBP12: KD; 25° C., Table 7
Description: This protocol utilizes Surface Plasmon Resonance (SPR) as a method to determine kinetics (KD, Ka, Kd) for the binding of compound (analyte) to immobilized FKBP12 (ligand).
Compound in 100% DMSO (in-house), 10×HBS-P+ buffer (GE Healthcare BR-1006-71), Assay buffer (1×HBS-P+ buffer, 1% DMSO), 12×HIS tagged FKBP12 (in-house).
Experiments are performed at 25° C. Stock solution of 12×HIS tagged FKBP12 is diluted to 100 nM in assay buffer (1% DMSO final). Approximately 500-600 RU of FKBP12 is immobilized on one of two flow cells of an activated NTA chip. The second flow cell is not activated as a reference for non-specific interaction of the analyte to the sensor chip. Various concentrations of compound (1 nM-1 μM range), serially diluted into the same assay buffer (1% DMSO final), are injected onto the FKBP12 surface and reference surface at a flow rate of 10 μl/min. The surface is regenerated between analyte injections with 350 mM EDTA.
The BiaEvaluation software program is used for data fitting. All data is reference subtracted against both the reference flow cell and a buffer injection. For kinetic analyses, data is locally fit to a 1:1 interaction model.
Experiments are performed at 25° C. Stock solution of 12×HIS tagged FKBP12 is diluted to 100 nM in assay buffer (1% DMSO final). Approximately 500-600 RU of FKBP12 is immobilized on one of two flow cells of an activated NTA chip. The second flow cell is not activated as a reference for non-specific interaction of the analyte to the sensor chip.

SMILES | % signal (Cyclophilin A) [%] | IC50 (Cyclophilin A) [µM] | % inhibition of CsA binding to Cyclophilin A (Cyclophilin A) [%] | IC50 (HeLa-CyclophilinA cells) [µM] | IC50 (FKBP12 [1]) [µM] | Kd (FKBP12 [2]) [µM]
C/C=C/C[C@@H](C)[C@@H](O)[C@H]1C(=O)N[C@@H](CC)C(=O)N(C)CC(=O)N(C)[C@@H](CCC)C(=O)N[C@@H](C(C)C)C(=O)N(C)[C@@H](CC(C)C)C(=O)N[C@@H](C)C(=O)N[C@H](C)C(=O)N(C)[C@@H](CC(C)C)C(=O)N(C)[C@@H](CC(C)C)C(=O)N(C)[C@@H](C(C)C)C(=O)N1C [Compound C44] | −0.07 | < 2 | 100.07 | < 3 |  | 
C/C=C/C[C@@H](C)[C@@H](O)[C@H]1C(=O)N[C@@H](CC)C(=O)N(C)CC(=O)N(C)[C@@H](Cc2ccc(O)cc2)C(=O)N[C@@H](C(C)C)C(=O)N(C)[C@@H](CC(C)C)C(=O)N[C@@H](CC)C(=O)N[C@H](C)C(=O)N(C)[C@@H](CC(C)C)C(=O)N(C)[C@@H](CC(C)C)C(=O)N(C)[C@@H](C(C)C)C(=O)N1C [Compound C100] (cyclo([Abu][Sar][NMeY]V[NMeL][Abu][dA][NMeL][NMeL][NMeV][MeBmt])) | 4.28 | < 2 |  |  |  | 
C/C=C/C[C@@H](C)[C@@H](O)[C@H]1C(=O)N[C@@H](CC)C(=O)N(C)CC(=O)N(C)[C@@H](C(C)C)C(=O)N[C@@H](C(C)C)C(=O)N(C)[C@@H](CC(C)C)C(=O)N[C@@H](CC)C(=O)N[C@H](C)C(=O)N(C)[C@@H](CC(C)C)C(=O)N(C)[C@@H](CC(C)C)C(=O)N(C)[C@@H](C(C)C)C(=O)N1C [Compound C101] (cyclo([Abu][Sar][NMeV]V[NMeL][Abu][dA][NMeL][NMeL][NMeV][MeBmt])) | 0.15 | < 2 | 99.85 |  |  | 
C/C=C/C[C@@H](C)[C@@H](O)[C@H]1C(=O)N[C@@H](CC)C(=O)N(C)CC(=O)N(C)[C@@H](CCC)C(=O)N[C@@H](C(C)C)C(=O)N(C)[C@@H](CC(C)C)C(=O)N[C@@H](CC)C(=O)N[C@H](C)C(=O)N(C)[C@@H](CC(C)C)C(=O)N(C)[C@@H](CC(C)C)C(=O)N(C)[C@@H](C(C)C)C(=O)N1C [Compound C102] (cyclo([Abu][Sar][NMeNva]V[NMeL][Abu][dA][NMeL][NMeL][NMeV][MeBmt])) | 0.70 | < 2 |  |  |  | 
C/C=C/C[C@@H](C)[C@@H](O)[C@H]1C(=O)N[C@@H](CC)C(=O)N(C)CC(=O)N(C)[C@H](C(C)C)C(=O)N[C@@H](C(C)C)C(=O)N(C)[C@@H](CC(C)C)C(=O)N[C@@H](CC)C(=O)N[C@H](C)C(=O)N(C)[C@@H](CC(C)C)C(=O)N(C)[C@@H](CC(C)C)C(=O)N(C)[C@@H](C(C)C)C(=O)N1C [Compound C103] (cyclo([Abu][Sar][dNMeV]V[NMeL][Abu][dA][NMeL][NMeL][NMeV][MeBmt])) | 13.65 | < 2 | 86.35 |  |  | 
C/C=C/C[C@@H](C)[C@@H](O)[C@H]1C(=O)N[C@@H](CC)C(=O)N(C)CC(=O)N(C)[C@@H](CCCC)C(=O)N[C@@H](C(C)C)C(=O)N(C)[C@@H](CC(C)C)C(=O)N[C@@H](CC)C(=O)N[C@H](C)C(=O)N(C)[C@@H](CC(C)C)C(=O)N(C)[C@@H](CC(C)C)C(=O)N(C)[C@@H](C(C)C)C(=O)N1C [Compound C104] | 0.99 | < 2 | 99.01 |  |  | 
CCC(Cc1ccccc1)C1C=CCC=CCC(C)C(O)C(C)C2CCC(C)C(O)(CC(=O)N3CCCCC3C(=O)O1)O2 (stereo not drawn) [Compound F1] |  |  |  |  | 0.355 | 0.0715

Now from value to compound:

% signal (Cyclophilin A) [%] | IC50 (Cyclophilin A) [µM] | % inhibition of CsA binding to Cyclophilin A (Cyclophilin A) [%] | IC50 (HeLa-CyclophilinA cells) [µM] | IC50 (FKBP12 [1]) [µM] | Kd (FKBP12 [2]) [µM] | SMILES
−0.08 | < 2 | 100.08 | < 3 |  |  | C/C=C/C[C@@H](C)[C@@H](O)[C@H]1C(=O)N[C@@H](CC)C(=O)N(C)CC(=O)N(C)[C@@H]([C@@H](C)CC)C(=O)N[C@@H](C(C)C)C(=O)N(C)[C@@H](CC(C)C)C(=O)N[C@@H](C)C(=O)N[C@H](C)C(=O)N(C)[C@@H](CC(C)C)C(=O)N(C)[C@@H](CC(C)C)C(=O)N(C)[C@@H](C(C)C)C(=O)N1C [Compound C33]
−0.01 | < 2 | 100.01 | < 3 |  |  | C/C=C/C[C@@H](C)[C@@H](O)[C@H]1C(=O)N[C@@H](CC)C(=O)N(C)CC(=O)N(C)[C@@H](C)C(=O)N[C@@H](C(C)C)C(=O)N(C)[C@@H](CC(C)C)C(=O)N[C@@H](C)C(=O)N[C@H](C)C(=O)N(C)[C@@H](CC(C)C)C(=O)N(C)[C@@H](CC(C)C)C(=O)N(C)[C@@H](C(C)C)C(=O)N1C [Compound C34]
0.89 | < 2 | 99.11 | > 3 |  |  | C/C=C/C[C@@H](C)[C@@H](O)[C@H]1C(=O)N[C@@H](CC)C(=O)N(C)CC(=O)N(C)[C@H](C)C(=O)N[C@@H](C(C)C)C(=O)N(C)[C@@H](CC(C)C)C(=O)N[C@@H](C)C(=O)N[C@H](C)C(=O)N(C)[C@@H](CC(C)C)C(=O)N(C)[C@@H](CC(C)C)C(=O)N(C)[C@@H](C(C)C)C(=O)N1C [Compound C35]
1.56 | < 2 | 98.44 | > 3 |  |  | C/C=C/C[C@@H](C)[C@@H](O)[C@H]1C(=O)N[C@@H](CC)C(=O)N(C)CC(=O)N(C)CC(=O)N[C@@H](C(C)C)C(=O)N(C)[C@@H](CC(C)C)C(=O)N[C@@H](C)C(=O)N[C@H](C)C(=O)N(C)[C@@H](CC(C)C)C(=O)N(C)[C@@H](CC(C)C)C(=O)N(C)[C@@H](C(C)C)C(=O)N1C [Compound C37]
1.57 | < 2 | 98.43 | < 3 |  |  | C/C=C/C[C@@H](C)[C@@H](O)[C@H]1C(=O)N[C@@H](CC)C(=O)N(C)CC(=O)N(C)[C@@H]([C@@H](C)O)C(=O)N[C@@H](C(C)C)C(=O)N(C)[C@@H](CC(C)C)C(=O)N[C@@H](C)C(=O)N[C@H](C)C(=O)N(C)[C@@H](CC(C)C)C(=O)N(C)[C@@H](CC(C)C)C(=O)N(C)[C@@H](C(C)C)C(=O)N1C [Compound C38]
3.78 | < 2 | 96.22 | < 3 |  |  | C/C=C/C[C@@H](C)[C@@H](O)[C@H]1C(=O)N[C@@H](CC)C(=O)N(C)CC(=O)N(C)[C@@H](Cc2ccc(O)cc2)C(=O)N[C@@H](C(C)C)C(=O)N(C)[C@@H](CC(C)C)C(=O)N[C@@H](C)C(=O)N[C@H](C)C(=O)N(C)[C@@H](CC(C)C)C(=O)N(C)[C@@H](CC(C)C)C(=O)N(C)[C@@H](C(C)C)C(=O)N1C [Compound C39]
1.26 | < 2 | 98.74 | > 3 |  |  | C/C=C/C[C@@H](C)[C@@H](O)[C@H]1C(=O)N[C@@H](CC)C(=O)N(C)CC(=O)N(C)[C@H](C(C)C)C(=O)N[C@@H](C(C)C)C(=O)N(C)[C@@H](CC(C)C)C(=O)N[C@@H](C)C(=O)N[C@H](C)C(=O)N(C)[C@@H](CC(C)C)C(=O)N(C)[C@@H](CC(C)C)C(=O)N(C)[C@@H](C(C)C)C(=O)N1C [Compound C42]
0.29 | < 2 | 99.71 | < 3 |  |  | C/C=C/C[C@@H](C)[C@@H](O)[C@H]1C(=O)N[C@@H](CC)C(=O)N(C)CC(=O)N(C)[C@@H](CCCC)C(=O)N[C@@H](C(C)C)C(=O)N(C)[C@@H](CC(C)C)C(=O)N[C@@H](C)C(=O)N[C@H](C)C(=O)N(C)[C@@H](CC(C)C)C(=O)N(C)[C@@H](CC(C)C)C(=O)N(C)[C@@H](C(C)C)C(=O)N1C [Compound C43]
